Key:
[1] = Stability test in water; type: physicochemical; conditions: for H2O, percentage of unmodified compound: after 48 h of incubation; for half-life: time before half of the drug is degraded, read-out: H2O, t1/2
Experimental: (§1) General procedure for release experiments. A 10 mM stock-solution of compounds 8a, 8b, 10, 15, 17, and 18 was prepared in DMSO and diluted in the corresponding buffers to obtain a 1 mM solution. In the case of compound 16, the 10 mM stock-solution was diluted in the corresponding buffer and additionally diluted with DMSO to obtain a final 0.67 mM solution in buffer/H2O/DMSO. For analysis at pH 7.4 and 6, phosphate buffers of 0.1 M were used (KH2PO4/K2HPO4). For pH 5.5 and 4.5, acetate buffer of 0.1 M was used (CH3COONa/CH3COOH). All compounds were mixed with the buffers at 25 °C and further incubated at 37 °C. HPLC analyses were carried out following the method reported in SI every 1–3 h up to 6 h and every 6 h up to 48 h.

[2] = Stability in solution at pH 7.4 (PBS / phosphate buffer), HPLC; type: physicochemical; conditions: for pH 7.4, percentage of unmodified compound / pH 7.4, t1/2: pH 7.4 solution; for pH 7.4, percentage of unmodified compound: after 48 h of incubation; for pH 7.4, t1/2: time before half of the drug is degraded; for stability in solution at pH 7.4: PBS solution, pH 7.4, 48 h
Experimental: as §1

[3] = Stability in plasma experiments (pooled human plasma, UV/LC-MS); type: in vitro ADME; conditions: for Plasma, percentage of unmodified compound: 37 °C, after 24 h of incubation; for half-life at 100 µM: pooled human plasma, pH 7.4, 37 °C, time before half of the drug is degraded, read-out: Plasma, t1/2
Experimental: Stability in plasma experiments. Pooled human plasma, purchased from Merck (0.9 mL, […]); hepes buffer (1.0 mL, 25 mM, NaCl 140 mM, pH 7.4); and tested compound dissolved in DMSO (100 µL, 2.0 mM) were mixed in a test tube incubated at 37 °C under continuous mechanical agitation. At set time points (0.0, 0.25, 0.50, 1.0, 3.0, 5.0, 8.0, and 24.0 h), samples of 100 µL were taken, mixed with 400 µL of cold acetonitrile, and centrifuged at 5000 rpm for 15 min. The supernatant was collected and analysed by UV/LC-MS to monitor the amount of unmodified compound. LC analyses of plasma stability tests were performed using Agilent 1100 LC/MSD VL system (G1946C) (Agilent Technologies, Palo Alto, CA, USA) constituting a vacuum solvent degassing unit, a binary high-pressure gradient pump, an 1100 series UV detector, and an 1100 MSD model VL benchtop mass spectrometer. A MSD single-quadrupole instrument was equipped with the orthogonal spray API-ES (Agilent Technologies, Palo Alto, CA, USA). The pressure of the nebulizing gas and the flow of the drying gas (nitrogen used for both) were set at 40 psi and 9 L/min, respectively. The capillary voltage, fragmentation voltage, and vaporization temperature were 3000 V, 10 V, and 350 °C, respectively. MSD was used in the positive and negative ion mode. Spectra were acquired over the scan range m/z 100–2000 using a step size of 0.1. Chromatographic analyses were performed using a Phenomenex Kinetex EVO C18-100Å (150 × 4.6 mm, 5 μm particle size) at room temperature, at a flow rate of 0.6 mL/min, injection volume of 10 μL, operating with a gradient elution of A: water (H2O) and B: acetonitrile (ACN). Both solvents were acidified with 0.1% v/v of formic acid. UV detection was monitored at 254 nm. The analysis started with 0% of B, then B was increased to 80% (from t = 0 to t = 20 min), then kept at 80% (from t = 20 to t = 25 min), and finally returned to 0% of eluent B in 5.0 min.

[4] = Release experiments (hydrolysis / payload release) in acidic acetate buffer, HPLC; type: physicochemical; conditions: for peak intensity of the conjugate at pH 4.5: pH 4.5, HPLC
Experimental: as §1

H2O, percentage of unmodified compound [1] | half-life [1] | pH 7.4, percentage of unmodified compound [2] | pH 7.4, t1/2 [2] | Plasma, percentage of unmodified compound [3] | half-life at 100 µM [3] | stability in solution at pH 7.4 [2] | peak intensity of the conjugate at pH 4.5 [4] | drug released at pH 5.5 after 48 h ([4]; pH 5.5, after 48 h) | rate of release at pH 5.5 (qualitative) ([4]; pH 5.5, compared with the other derivatives) | Structure (SMILES) | free Enzalutamide 9 detected at pH 4.5 ([4]; pH 4.5, 48 h, 37 °C) | amide 9 released at pH 5.5 ([4]; pH 5.5, after 48 h at 37 °C)
99% | > 48 h | 94% | > 48 h | 95% | > 24 h | – | – | – | – | C#CCOc1cc(COC(=O)N(C[C@H]2CN(c3ccc(N4CCOCC4)c(F)c3)C(=O)O2)C(C)=O)cc2c1OC(OCC)O2 (stereo partly drawn) [Compound 15, (2-Ethoxy-7-(prop-2-yn-1-yloxy)benzo[d][1,3]dioxol-5-yl)methyl acetyl(((R)-3-(3-fluoro-4-morpholinophenyl)-2-oxooxazolidin-5-yl)methyl)carbamate] | – | –
– | – | – | – | – | – | stable | decreased | – | – | C#CCOc1cc(COC(=O)N(C[C@@H]2CN(c3ccc(N4CCOCC4)c(F)c3)C(=O)O2)C(C)=O)ccc1OCOCCOC [Compound 8b, {[3-(3-Fluoro-4-morpholinophenyl)-2-oxo-1,3-oxazolidin-5-yl]methyl}acetylamino-{4-[(2-methoxyethoxy)methoxy]-3-(2-propynyloxy)-phenyl}methylformylate] | – | –
– | – | – | – | – | – | stable | decreased | – | – | C#CCOc1cc(COC(=O)N(C[C@H]2CN(c3ccc(N4CCOCC4)c(F)c3)C(=O)O2)C(C)=O)ccc1OCOC [Compound 8a, 4-(Methoxymethoxy)-3-(prop-2-yn-1-yloxy)benzyl (R)-acetyl((3-(3-fluoro-4-morpholino-phenyl)-2-oxooxazolidin-5-yl)methyl)carbamate] | – | –
99% | > 48 h | 92% | > 48 h | 84% | > 24 h | – | – | no more than 80% | faster | C#CCOc1cc(COC(=O)NS(=O)(=O)c2ccc(C)cc2)cc2c1OC(OCC)O2 (stereo not shown) [Compound 18, (2-Ethoxy-7-(prop-2-yn-1-yloxy)benzo[d][1,3]dioxol-5-yl)methyl tosylcarbamate] | – | –

Structure (SMILES) | H2O, percentage of unmodified compound [1] | half-life [1] | pH 7.4, percentage of unmodified compound [2] | pH 7.4, t1/2 [2] | Plasma, percentage of unmodified compound [3] | half-life at 100 µM [3] | stability in solution at pH 7.4 [2] | peak intensity of the conjugate at pH 4.5 [4] | drug released at pH 5.5 after 48 h ([4]; pH 5.5, after 48 h) | rate of release at pH 5.5 (qualitative) ([4]; pH 5.5, compared with the other derivatives) | free Enzalutamide 9 detected at pH 4.5 ([4]; pH 4.5, 48 h, 37 °C) | amide 9 released at pH 5.5 ([4]; pH 5.5, after 48 h at 37 °C)
C#CCOc1cc(COC(=O)N(C)C(=O)c2ccc(N3C(=S)N(c4ccc(C#N)c(C(F)(F)F)c4)C(=O)C3(C)C)cc2F)cc2c1OC(OCC)O2 (stereo not shown) [Compound 16, (2-Ethoxy-7-(prop-2-yn-1-yloxy)benzo[d][1,3]dioxol-5-yl)methyl (4-(3-(4-cyano-3-(trifluoromethyl)phenyl)-5,5-dimethyl-4-oxo-2-thioxoimidazolidin-1-yl)-2-fluorobenzoyl)(methyl)carbamate] | 99% | > 48 h | 95% | > 48 h | 89% | > 24 h | – | – | – | – | – | –
C#CCOc1cc(COC(=O)N(C)C(=O)c2ccc(N3C(=S)N(c4ccc(C#N)c(C(F)(F)F)c4)C(=O)C3(C)C)cc2F)ccc1OCOC [Compound 10, 4-(Methoxymethoxy)-3-(prop-2-yn-1-yloxy)benzyl (4-(3-(4-cyano-3-(trifluoromethyl)-phenyl)-5,5-dimethyl-4-oxo-2-thioxoimidazolidin-1-yl)-2-fluorobenzoyl)(methyl)-carbamate] | – | – | – | – | – | – | stable | decreased | – | – | 40% | only a small amount

Reference: PMC10060004, “A Self-Immolative Linker for the pH-Responsive Release of Amides” (Molecules, 2023)
